Data as given in patent US20090253709A1 (NATIONAL DEFENSE MEDICAL CENTER, priority 2008, published 2009).
Read-outs that look alike come from different tables or passages of the source.

Experiments:
MTT assay in BJ1 cells = format: cell-based; conditions: human, hTERT-BJ1-PTERT(3.4)-SEAP cells, BJ1, read-out: MTT (Inhibition μM ± SD); for viability at 48 h, 1 µM: compound concentration 1 μM; for viability at 48 h, 10 µM: compound concentration 10 μM; for viability at 48 h, 100 µM: compound concentration 100 μM
Procedure: A total of 2×10^3 […] cells were seeded in the 96-well cell culture plate, and incubated with DMEM (GIBCO®)/glucose mixture and Medium 199 (GIBCO®)/10% FBS/1 mM sodium pyruvate (GIBCO®)/4 mM L-glutamine (GIBCO®) mixture at a ratio of 4:1 at 37° C. for 24 hours. […] After 48 hours of drug treatment, the cultured medium were collected for performing the analysis of SEAP activity. The cells were washed with 1×PBS once immediately, and the MTT assay was performed to compare the compounds with the relative toxicity or the influence to the proliferation and activity. Mitochondria is the place for cellular respiration, and there are many reductive reactions catalyzed by dehydrogenases. MTT is a water-soluble yellow compound, and the […] will be formed after reduction. This crystal can be dissolved in the organic solvent, and has high absorbance at the wavelength of 570 nm. The higher cellular activity or more cell numbers, the more generated crystal violets. Therefore, the cellular activity and cell number can be obtained by the MTT assay. MTT solution was prepared by dissolving MTT powder in PBS solution to achieve 5 mg/ml, filtrated and stored at 4° C. Lysis buffer contained 20% (w/v) of SDS in 50% of N,N-dimethylformamide (DMF, Riedel-deHaën). After the cells were incubated in the 96-well culture plate, the original medium was discarded, 100 μl of the fresh serum-free medium per well and 25 μl of MTT solution per well were added in respectively, and the cells were further incubated in the CO2 incubator at 37° C. for 4 hours. Then, 100 μl of lysis buffer per well was added in and incubated overnight in the CO2 incubator at 37° C. The absorbance at 570 nm was determined by the ELISA reader.

telomerase = experiment: Telomeric repeat amplification protocol (TRAP); format: biochemical; conditions: compounds at 100, 10 and 1 μM; gel electrophoresis
hTERT expression = experiment: SEAP assay, H1299/PhTERT-driven SEAP system; format: cell-based, human; conditions: Homo sapiens
From the text: The condition of the cells for selecting the telomerase inhibitor must be the cancer cells with telomerase activity. H1299 is a non-small cell lung cancer cell line with telomerase activity. The hTERT communication gene linked behind PhTERT which is located at the fifth chromosome of H1299 cell can be expressed; however, this expression is hard to detect. Therefore, the plasmid having the SEAP communication gene linked behind PhTERT was transfected into H1299 cells. Under the identical condition, after PhTERT was activated, the SEAP communication gene linked behind the plasmid was also activated. This gene could be detected by this analytic method while expressing.
If additionally added reagent can inhibit PhTERT, the linked SEAP communication gene will not be expressed, and the hTERT communication gene linked behind PhTERT at the fifth chromosome will not be expressed. […]
The cellular medium after the cellular incubation was transferred into the eppondorf tube, and the activity of endogeneous alkaline phosphatase was inactivated at 65° C. for 10 minutes. After centrification, the mixture was obtained by mixing 50 μl of the supernatant with the equal volume of the SEAP buffer. The mixture and the substrate (120 mM of p-nitrophenylphosphate) were preheated at 37° C. for 10 minutes respectively, and the mixture and the substrate were mixed at a ratio of 1:10 and reacted at 37° C. The absorbance of visible light at 405 nm was determined at the appropriate time intervals, and the enzymatic activity of SEAP was represented by the speed of the increasing absorbance at 405 nm.
The selection of telomerase inhibitors of the anthraquinone compounds provided in the present invention was performed by the H1299/PhTERT-driven SEAP system. SEAP is the communication gene in this drug selection model. The SEAP inhibition was shown as follows. The quantitative cellular medium obtained after the 24-hour drug-treatment and the identical inactivation was reacted with the quantitative SEAP substrate, and the absorbance at 405 nm was detected for 5 time intervals. Subsequently, the linear slope of absorbance to the measuring time was calculated, and the variance of absorbance at 405 nm per minute was represented and compared with the SEAP-producing result of drug-untreated H1299 cells. In addition, the influence of the cell-treated drug solution to the cellular proliferation and the drug toxicity to the cells were considered, and the cellular growth was evaluated by the MTT assay. The drug-treated cells were analyzed by the SEAP assay and the data analysis of MTT assay at the same time. Both results were compared so as to delete the influence of cell number or the activity to SEAP, and the dose-dependent phenomenon could be anticipated in the range of drug concentration designed by the laboratory.
In the preliminary selection, the highest concentration was 1000 μM, and 10-fold serial dilutions were done. Therefore, the final concentrations for treating cells were 1 μM, 10 μM and 100 μM, and the drug concentrations were repeated for 5 times. Since the chemically-synthetic drugs have colors thereon, the SEAP value of drug-treatment without cells was also determined to be the background value which was deducted while treating with the drugs. The candidate drug for inhibiting telomerase on the hTERT gene expression level was evaluated and anticipated.

[1] = NCI-H1299, read-out: SEAP (Inhibition μM ± SD)
[2] = NCI-H1299, H1299, compound concentration 1 μM, read-out: SEAP (Inhibition μM ± SD)
[3] = NCI-H1299, H1299, compound concentration 10 μM, read-out: SEAP (Inhibition μM ± SD)
[4] = NCI-H1299, H1299, compound concentration 100 μM, read-out: SEAP (Inhibition μM ± SD)

Row | Structure (SMILES) | viability at 48 h, 1 µM (MTT assay in BJ1 cells) [%] | viability at 48 h, 10 µM (MTT assay in BJ1 cells) [%] | viability at 48 h, 100 µM (MTT assay in BJ1 cells) [%] | telomerase inhibition effect in TRAP assay (telomerase) | activity at 1 µM (hTERT expression; [1]) [%] | activity at 10 µM (hTERT expression; [1]) [%] | activity at 100 µM (hTERT expression; [1]) [%] | melting point [°C] | activity at 1 µM (hTERT expression; [2]) [%] | activity at 10 µM (hTERT expression; [3]) [%] | activity at 100 µM (hTERT expression; [4]) [%]
1 | CN(C)CC(=O)Nc1ccc2c(c1)C(=O)c1cc(NC(=O)CN(C)C)ccc1C2=O [Compound 8, 2,7-Bis[2-(dimethylamino)acetamido]anthraquinone] | 96 ± 3 | 45 ± 1 | 39 ± 1 | telomerase inhibition effect | 87 ± 12 | 40 ± 20 | 21 ± 14 |  |  |  | 
2 | CC(C)NCC(=O)Nc1ccc2c(c1)C(=O)c1cc(NC(=O)CNC(C)C)ccc1C2=O [Compound 13, 2,7-Bis[2-(isopropylamino)acetamido]anthraquinone] | 89 ± 1 | 41 ± 2 | 39 ± 1 | telomerase inhibition effect | 73 ± 31 | 28 ± 18 | 21 ± 16 | 158 |  |  | 
3 | O=C(Nc1ccc2c(c1)C(=O)c1cc(NC(=O)c3ccccc3)ccc1C2=O)c1ccccc1 [Compound 29, 2,7-Bis(benzoamido)anthraquinone] | 92 ± 2 | 85 ± 2 | 97 ± 3 | telomerase inhibition effect |  |  |  | 224 | 104 ± 10 | 92 ± 11 | 85 ± 19
4 | CCCC(=O)Nc1ccc2c(c1)C(=O)c1cc(NC(=O)CCC)ccc1C2=O [Compound 28, 2,7-Bis(butyramido)anthraquinone] | 84 ± 2 | 51 ± 8 | 50 ± 6 | telomerase inhibition effect | 90 ± 8 | 83 ± 6 | 83 ± 4 | 275 |  |  | 
5 | O=C(CN1CCCC1)Nc1ccc2c(c1)C(=O)c1cc(NC(=O)CN3CCCC3)ccc1C2=O [Compound 6, 2,7-Bis[2-(pyrrolidino)acetamido]anthraquinone] | 99 ± 2 | 60 ± 2 | 39 ± 1 | telomerase inhibition effect |  |  |  | 201 | 88 ± 10 | 48 ± 13 | 30 ± 10
6 | CN(C)CCC(=O)Nc1ccc2c(c1)C(=O)c1cc(NC(=O)CCN(C)C)ccc1C2=O [Compound 20, 2,7-Bis[3-(dimethylamino)propionamido]anthraquinone] | 94 ± 7 | 30 ± 14 | 22 ± 13 | telomerase inhibition effect | 5 ± 94 | 13 ± 30 |  | 196 |  |  | 
7 | CCCCNCC(=O)Nc1ccc2c(c1)C(=O)c1cc(NC(=O)CNCCCC)ccc1C2=O [Compound 5, 2,7-Bis[2-(butylamino)acetamido]anthraquinone] | 103 ± 1 | 41 ± 1 | 43 ± 1 |  |  |  |  | 125 | 77 ± 18 | 26 ± 17 | 20 ± 13
8 | O=C(CCl)Nc1ccc2c(c1)C(=O)c1cc(NC(=O)CCl)ccc1C2=O [Compound 3, 2,7-bis(chloroacetamido)anthraquinone] | 105 ± 2 | 89 ± 3 | 88 ± 2 |  | 72 ± 3 | 40 ± 1 | 36 ± 1 | 286 |  |  | 
9 | CC(C)CNCC(=O)Nc1ccc2c(c1)C(=O)c1cc(NC(=O)CNCC(C)C)ccc1C2=O [Compound 14, 2,7-Bis[2-(isobutylamino)acetamido]anthraquinone] | 107 ± 3 | 37 | 39 |  |  |  |  | 146 | 73 ± 20 | 38 ± 15 | 26 ± 10
10 | O=C(CN1CCCCC1)Nc1ccc2c(c1)C(=O)c1cc(NC(=O)CN3CCCCC3)ccc1C2=O [Compound 7, 2,7-Bis[2-(piperidino)acetamido]anthraquinone] | 89 ± 1 | 78 ± 3 | 22 ± 2 |  |  |  |  | 243 | 74 ± 19 | 69 ± 20 | 63 ± 15
11 | CCN(CC)CCC(=O)Nc1ccc2c(c1)C(=O)c1cc(NC(=O)CCN(CC)CC)ccc1C2=O [Compound 16, 2,7-Bis[3-(diethylamino)propionamido]anthraquinone] | 103 ± 2 | 55 ± 3 | 36 ± 1 | telomerase inhibition effect |  |  |  |  | 76 ± 19 | 35 ± 17 | 26 ± 11
12 | CCCCNCCC(=O)Nc1ccc2c(c1)C(=O)c1cc(NC(=O)CCNCCCC)ccc1C2=O [Compound 17, 2,7-Bis[3-(butylamino)propionamido]anthraquinone] | 80 ± 3 | 70 ± 1 | 40 |  |  |  |  | 168 | 56 ± 14 | 33 ± 9 | 22 ± 17
13 | O=C(CCCl)Nc1ccc2c(c1)C(=O)c1cc(NC(=O)CCCl)ccc1C2=O [Compound 15, 2,7-Bis(3-chloropropionamido)anthraquinone] | 77 ± 2 | 65 ± 1 | 39 ± 1 |  |  |  |  | 281 | 94 ± 11 | 94 ± 7 | 87 ± 9
14 | O=C(CCN1CCCCC1)Nc1ccc2c(c1)C(=O)c1cc(NC(=O)CCN3CCCCC3)ccc1C2=O [Compound 19, 2,7-Bis[3-(piperidino)propionamido]anthraquinone] | 92 ± 6 | 54 ± 2 | 41 ± 2 |  |  |  |  | 266 | 55 ± 23 | 33 ± 8 | 25 ± 10
15 | CN1CCN(CC(=O)Nc2ccc3c(c2)C(=O)c2cc(NC(=O)CN4CCN(C)CC4)ccc2C3=O)CC1 [Compound 11, 2,7-Bis[2-(N-methylpiperazino)acetamido]anthraquinone] | 86 ± 1 | 69 ± 1 | 47 ± 3 |  |  |  |  | 173 | 76 ± 21 | 50 ± 11 | 23 ± 9
